Source: US8343531B2, “Composition containing peptide as active ingredient” (Meiji Co., Ltd., priority 2006, dated 2013)
Residues, ends and D or L forms follow the SMILES beside them.

What was measured:
[1] = system: isolated epitrochlearis muscles; test: Rate of glucose uptake into isolated muscles; assay type: cell-based, Wister rats; settings: 1 mM dipeptide, 30 min at 30° C., then 8 mM 2-deoxyglucose 20 min; average ± SD; control 0.95 ± 0.10
Description: Epitrochlearis muscles were excised from male Wister rats (each weighing 120 g) (16 rats) under pentobarbital anesthesia carefully so as not to hurt the epitrochlearis muscles. The epitrochlearis muscles were incubated at 35° C. for 1 hour in KRH buffer (136 mM NaCl, 4.7 mM KCl, 1.25 mM CaCl2, 1.25 mM MgSO4.7H2O, 20 mM Hepes, 1 mg/mL BSA, pH 7.4; referred to hereinafter as KRH buffer) containing 0.1% bovine serum albumin (BSA), 8 mM glucose and 32 mM mannitol, in 5% CO2/95% O2. Thereafter, the epitrochlearis muscles were removed and incubated (8 samples per group) at 30° C. for 30 minutes in KRH buffer containing 0.1% BSA, 40 mM mannitol, and 1 mM Ile-Leu (Kokusan Chemical Co., Ltd.), 1 mM Ile-Trp (Kokusan Chemical Co., Ltd.), or the milk whey protein hydrolysate containing 1 mM leucine in terms of amino acid, produced in Production Example 1, in 5% CO2/95% O2. Then, the epitrochlearis muscles were removed and incubated at 30° C. for accurately 20 minutes in KRH buffer containing 0.1% BSA, 32 mM mannitol and 8 mM 2-deoxyglucose, in 5% CO2/95% O2. […] Thereafter, the frozen epitrochlearis muscles were homogenized in 0.3 M perchloric acid aqueous solution, and after the resulting suspension was neutralized, the amount of 2-deoxyglucose-6-phosphate in the muscles was quantified by an enzymatic method to determine the rate of glucose uptake.

Wister rats = test: Oral glucose tolerance test; assay type: in vivo; settings: 0.1 g/kg BW oral with glucose 2.0 g/kg BW
Description: Male Wister rats each weighing about 360 g (6 rats per group) were used. The rats were fasted for 18 hours and then administered with 30% glucose aqueous solution in a dose of 2.0 g/kg body weight (BW). […] After 30, 60, 90, 120 and 180 minutes, blood was collected from a rat tail vein and measured for its blood glucose level with Diasensor (manufactured by ARKRAY, Inc.).

[2] = system: isolated epitrochlearis muscles; test: Influence of PI3K inhibitor and GLUT-4 inhibitor on the rate of glucose uptake into isolated muscles; assay type: cell-based, Wister rats; settings: 1 mM Ile-Leu alone; average ± SD; control 0.95 ± 0.10
Description: Epitrochlearis muscles were excised from male Wister rats (each weighing 120 g) (8 samples per group) under pentobarbital anesthesia carefully so as not to hurt the epitrochlearis muscles. The epitrochlearis muscles were incubated at 35° C. for 1 hour in KRH buffer containing 0.1% BSA, 8 mM glucose and 32 mM mannitol, in 5% CO2/95% O2. Thereafter, the epitrochlearis muscles were removed and incubated at 30° C. for 30 minutes in KRH buffer containing 0.1% BSA, 40 mM mannitol, and 1 mM Ile-Leu (Kokusan Chemical Co., Ltd.), 1 mM Ile-Leu+10 μM LY294002 (Sigma) or 1 mM Ile-Leu+70 μM cytochalasin B (Sigma) in 5% CO2/95% O2. Then, the epitrochlearis muscles were removed and incubated at 30° C. for accurately 20 minutes in KRH buffer containing 0.1% BSA, 32 mM mannitol and 8 mM 2-deoxyglucose, in 5% CO2/95% O2. Immediately after incubation for accurately 20 minutes, the epitrochlearis muscles were frozen with liquid nitrogen. Thereafter, the frozen epitrochlearis muscles were homogenized in 0.3 M perchloric acid aqueous solution, and after the resulting suspension was neutralized, the amount of 2-deoxyglucose 6-phosphate in the muscles was quantified by an enzymatic method to determine the rate of glucose uptake.

Rat L6 myotubes = test: Rate of glucose uptake into muscle cells; assay type: cell-based; settings: 1 mM dipeptide, 3 hours, then 8 mM 2-deoxyglucose 10 minutes; average ± SD; control 1.21 ± 0.07
Description: Rat L6 myotubes were cultured in an Eagle medium containing 10% bovine serum (α-MEM) in a Petri dish coated with type 1 collagen in 5% CO2/95% O2. The cells were recovered by trypsin treatment in a usual manner and seeded at a density of 50,000 cells/well on a 48-well plate coated with type 1 collagen, and cultured for 3 days to make the cells confluent. After the medium was removed, 500 μL of an Eagle medium containing 2% bovine serum (α-MEM) was added to each well, and then the cells were cultured for 5 days thereby inducing differentiation. Each well was washed with 500 μL KRH buffer (136 mM NaCl, 4.7 mM KCl, 1.25 mM CaCl2, 1.25 mM MgSO4.7H2O, 20 mM Hepes, 1 mg/mL BSA, pH 7.4) carefully such that the cells were not detached. Then, […] KRH buffer containing 1 mM Ile-Leu, Ile-Trp, Ala-Leu, Val-Leu, Gly-Leu, Asp-Leu, Lys-Ile, Leu-Leu, Ile-Ile, Leu-Ile, Ile-Asn, Leu-Ala, Leu-Glu, Leu-Val or Ile-Val (Kokusan Chemical Co., Ltd.) was added to each well and reacted for 3 hours with the cells. Thereafter, the KRH buffer was removed, and […] buffer containing 8 mM 2-deoxyglucose was added to each well and reacted for accurately 10 minutes with for the cells. The reaction was terminated with […] 0.1 N NaOH, followed by neutralization with an equal volume of 0.1 N HCl, and then the amount of 2-deoxyglucose 6-phosphate in the cells was quantified by an enzymatic method to determine the rate of glucose uptake.

Compound	Rate of glucose uptake into muscle cells (Rat L6 myotubes) [nmol/min/well]	further results
CC[C@H](C)[C@H](N)C(=O)N[C@@H](CC(C)C)C(=O)O [Ile-Leu, Isoleucyl leucine] (H-Ile-Leu-OH)	1.61 ± 0.05	Rate of glucose uptake into isolated skeletal muscles [1]: 1.88 ± 0.40 μmol/min/g muscle; Blood glucose level (change) (Wister rats; 0 minute, fasted rats, average ± SD): 0 ± 0 mg/100 mL; Blood glucose level (change) (Wister rats; 30 minutes, glucose alone 62 ± 4): 44 ± 8 mg/100 mL; Blood glucose level (change) (Wister rats; 60 minutes, glucose alone 61 ± 4): 57 ± 7 mg/100 mL; Blood glucose level (change) (Wister rats; 90 minutes, glucose alone 57 ± 4): 35 ± 4 mg/100 mL; Blood glucose level (change) (Wister rats; 120 minutes, glucose alone 27 ± 6): 19 ± 3 mg/100 mL; Blood glucose level (change) (Wister rats; 180 minutes, glucose alone 5 ± 1): 1 ± 3 mg/100 mL; Rate of glucose uptake into isolated skeletal muscles [2]: 1.88 ± 0.40 μmol/min/g muscle
Ala-Leu	1.91 ± 0.07	–
Asp-Leu	1.81 ± 0.50	–
Gly-Leu	1.81 ± 0.04	–
Ile-Asn	1.92 ± 0.06	–
Ile-Ile	1.88 ± 0.05	–
Ile-Trp	1.91 ± 0.06	Rate of glucose uptake into isolated skeletal muscles [1]: 1.92 ± 0.31 μmol/min/g muscle
Ile-Val	1.80 ± 0.07	–
Leu-Ala	2.09 ± 0.08	–
Leu-Glu	2.16 ± 0.05	–
Leu-Ile	1.73 ± 0.04	–
Leu-Leu	1.75 ± 0.05	–
Leu-Val	1.74 ± 0.06	–
Lys-Ile	2.34 ± 0.06	–
Val-Leu	1.76 ± 0.07	–
